Measurements taken from US12209102B2, “Heterocyclic compounds and uses thereof” (Kumquat Biosciences Inc., priority 2022, dated 2025).
pIC50: −log10 of the molar value.

How the values were obtained:
K-Ras G12D = target: T1, K-Ras G12D (Homo sapiens, UniProt P01116, G12D); test: HTRF resonance energy transfer assay, K-Ras G12D / SOS1 interaction; type: biochemical; conditions: HTRF assay of Example 5; read-out: IC50 against K-Ras G12D
T1 construct: made in house; host or cells: E. coli BL21 (DE3)
T1 sequence (P01116 1-188 isoform P01116-2 G12D): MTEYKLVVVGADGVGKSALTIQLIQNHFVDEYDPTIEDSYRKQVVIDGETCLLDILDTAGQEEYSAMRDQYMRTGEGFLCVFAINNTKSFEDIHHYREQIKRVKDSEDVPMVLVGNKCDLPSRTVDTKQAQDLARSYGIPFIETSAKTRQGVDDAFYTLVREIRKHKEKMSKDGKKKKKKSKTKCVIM
Procedure, shortened: (§1)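 Compounds, tested in duplicate at 10 μM down to 0.01 μM, were read after about 10 min or more by HTRF as the 665/620 nm emission ratio (337 nm excitation) to derive IC50. This ratio reports FRET between an anti-GST-Eu donor on GST-K-Ras (wild-type or mutant) and an anti-6His-XL665 acceptor on His-hSOS1. Buffer: ~5 mM HEPES pH 7.4, 150 mM NaCl, 1 mM DTT, 0.05% BSA, 0.0025% Igepal.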

K-Ras WT = target: T2, K-Ras WT (Homo sapiens, UniProt P01116); test: HTRF resonance energy transfer assay, K-Ras WT / SOS1 interaction; type: biochemical; conditions: HTRF assay of Example 5; read-out: IC50 against K-Ras WT
T2 construct: made in house; host or cells: E. coli BL21 (DE3)
T2 sequence (P01116 1-188 isoform P01116-2): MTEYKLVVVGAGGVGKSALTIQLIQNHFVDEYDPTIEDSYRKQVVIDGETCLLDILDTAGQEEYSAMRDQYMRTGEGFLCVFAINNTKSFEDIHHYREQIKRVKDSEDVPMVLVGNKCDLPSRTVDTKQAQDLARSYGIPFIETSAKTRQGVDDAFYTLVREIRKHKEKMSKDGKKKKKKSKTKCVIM
Procedure, shortened: as §1

K-Ras G12S = target: T3, K-Ras G12S (Homo sapiens, UniProt P01116, G12S); test: HTRF resonance energy transfer assay, K-Ras G12S / SOS1 interaction; type: biochemical; conditions: HTRF assay of Example 5; read-out: IC50 against K-Ras G12S
T3 construct: made in house; host or cells: E. coli BL21 (DE3)
T3 sequence (P01116 1-188 isoform P01116-2 G12S): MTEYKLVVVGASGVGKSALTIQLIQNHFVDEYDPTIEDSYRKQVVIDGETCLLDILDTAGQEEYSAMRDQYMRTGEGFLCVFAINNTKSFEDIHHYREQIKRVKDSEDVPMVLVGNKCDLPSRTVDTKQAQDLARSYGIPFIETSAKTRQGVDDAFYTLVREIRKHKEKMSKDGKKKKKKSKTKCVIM
Procedure, shortened: as §1

K-Ras G12V = target: T4, K-Ras G12V (Homo sapiens, UniProt P01116, G12V); test: HTRF resonance energy transfer assay, K-Ras G12V / SOS1 interaction; type: biochemical; conditions: HTRF assay of Example 5; read-out: IC50 against K-Ras G12V
T4 construct: made in house; host or cells: E. coli BL21 (DE3)
T4 sequence (P01116 1-188 isoform P01116-2 G12V): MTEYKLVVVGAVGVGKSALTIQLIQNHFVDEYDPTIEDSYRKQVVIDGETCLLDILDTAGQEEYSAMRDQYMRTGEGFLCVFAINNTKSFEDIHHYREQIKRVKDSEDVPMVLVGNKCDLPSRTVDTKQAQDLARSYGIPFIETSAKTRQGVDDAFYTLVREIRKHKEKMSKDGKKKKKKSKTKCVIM
Procedure, shortened: as §1

A549 cells = test: Ras cellular assay, growth of cells with K-Ras G12S mutation (CellTiter-Glo); type: cell-based; conditions: Homo sapiens, cell growth, Example 9, G12S mutation, read-out: IC50 against A549 cells
Procedure, shortened: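 Growth inhibition IC50 values come from four-parameter fits of CellTiter-Glo luminescence, read about 6 days after compound addition. G12S-mutant A549 cells (e.g. 800/well, RPMI-1640 + 10% heat-inactivated FBS) were plated in tissue-culture-treated or ultra-low-attachment 384-well format. Dosing began the following day with serial dilutions, e.g. 10 points, 3-fold.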

SW620 cells = test: Ras cellular assay, growth of cells with K-Ras G12V mutation (CellTiter-Glo); type: cell-based; conditions: Homo sapiens, SW-620; cell growth, Example 9, G12V mutation; read-out: IC50 against SW620 cells
Procedure, shortened: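 IC50 values came from a four-parameter fit of CellTiter-Glo viability, read roughly 6 days after dosing with e.g. a 10-point threefold dilution series. G12V-mutant SW620 cells (e.g. 800 per well) had been plated the previous day in RPMI-1640/10% heat-inactivated FBS, on tissue culture-treated or ultra-low attachment plates.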

CC1Oc2c(Cl)c(-c3ccc(F)c4sc(N)c(C#N)c34)c(F)c3nc(OC[C@@]45CCCN4C[C@H](F)C5)nc(c23)N(C2CC2)C1C (stereo partly drawn) [Compound 929, 2-amino-4-(8-chloro-4-cyclopropyl-10-fluoro-2-(((2R,7aS)-2-fluorotetrahydro-1H-pyrrolizin-7a(5H)-yl)methoxy)-5,6-dimethyl-5,6-dihydro-4H-[1,4]oxazepino[5,6,7-de]quinazolin-9-yl)-7-fluorobenzo[b]thiophene-3-carbonitrile]
pIC50 (K-Ras G12D): > 7.00
pIC50 (K-Ras WT): > 7.00
pIC50 (K-Ras G12S): > 7.00
pIC50 (K-Ras G12V): > 7.00
pIC50 (A549 cells): > 5.30
pIC50 (SW620 cells): > 5.30

COC1CN(C(=O)N2CCC(N3C[C@H](C)Oc4c(Cl)c(-c5ccc(F)c6sc(N)c(C#N)c56)c(F)c5nc(OC[C@@]67CCCN6C[C@H](F)C7)nc3c45)CC2)C1 [Compound 935, 2-amino-4-((6S)-8-chloro-10-fluoro-2-(((2R,7aS)-2-fluorotetrahydro-1H-pyrrolizin-7a(5H)-yl)methoxy)-4-(1-(3-methoxyazetidine-1-carbonyl)piperidin-4-yl)-6-methyl-5,6-dihydro-4H-[1,4]oxazepino[5,6,7-de]quinazolin-9-yl)-7-fluorobenzo[b]thiophene-3-carbonitrile]
pIC50 (K-Ras G12D): > 7.00
pIC50 (K-Ras WT): > 7.00
pIC50 (K-Ras G12S): > 7.00
pIC50 (K-Ras G12V): > 7.00
pIC50 (A549 cells): > 5.30
pIC50 (SW620 cells): > 5.30

COCCN1CCC(N2CCOc3c(Cl)c(-c4ccc(F)c5sc(N)c(C#N)c45)c(F)c4nc(OC[C@@]56CCCN5C[C@H](F)C6)nc2c34)C1 (stereo partly drawn) [Compound 936, 2-amino-4-(8-chloro-10-fluoro-2-(((2R,7aS)-2-fluorotetrahydro-1H-pyrrolizin-7a(5H)-yl)methoxy)-4-(1-(2-methoxyethyl)pyrrolidin-3-yl)-5,6-dihydro-4H-[1,4]oxazepino[5,6,7-de]quinazolin-9-yl)-7-fluorobenzo[b]thiophene-3-carbonitrile]
pIC50 (K-Ras G12D): > 7.00
pIC50 (K-Ras WT): > 7.00
pIC50 (K-Ras G12S): > 7.00
pIC50 (K-Ras G12V): > 7.00
pIC50 (A549 cells): > 5.30
pIC50 (SW620 cells): > 5.30

C#Cc1c(F)ccc2cc(O)cc(-c3nc4c5c(nc(OC[C@@]67CCCN6C[C@H](F)C7)nc5c3F)N(c3ccccc3)CCO4)c12 [Compound 948, 5-ethynyl-6-fluoro-4-(4-fluoro-2-(((2R,7aS)-2-fluorotetrahydro-1H-pyrrolizin-7a(5H)-yl)methoxy)-10-phenyl-9,10-dihydro-8H-7-oxa-1,3,6,10-tetraazacyclohepta[de]naphthalen-5-yl)naphthalen-2-ol]
pIC50 (K-Ras G12D): > 7.00
pIC50 (K-Ras WT): > 7.00
pIC50 (K-Ras G12S): > 7.00
pIC50 (K-Ras G12V): > 7.00
pIC50 (A549 cells): > 5.30
pIC50 (SW620 cells): > 5.30

N#Cc1c(N)sc2c(F)ccc(-c3c(Cl)c4c5c(nc(OC[C@@]67CCCN6C[C@H](F)C7)nc5c3F)N(C3CCN(C(=O)C(F)Cl)C3)CCO4)c12 (stereo partly drawn) [Compound 949, 2-amino-4-(8-chloro-4-(1-(2-chloro-2-fluoroacetyl)pyrrolidin-3-yl)-10-fluoro-2-(((2R,7aS)-2-fluorotetrahydro-1H-pyrrolizin-7a(5H)-yl)methoxy)-5,6-dihydro-4H-[1,4]oxazepino[5,6,7-de]quinazolin-9-yl)-7-fluorobenzo[b]thiophene-3-carbonitrile]
pIC50 (K-Ras G12D): > 7.00
pIC50 (K-Ras WT): > 7.00
pIC50 (K-Ras G12S): > 7.00
pIC50 (K-Ras G12V): > 7.00
pIC50 (A549 cells): > 5.30
pIC50 (SW620 cells): > 5.30

N#Cc1c(N)sc2c(F)ccc(-c3c(Cl)c4c5c(nc(OC[C@@]67CCCN6C[C@H](F)C7)nc5c3F)N(C3CC(F)(F)C3)CCO4)c12 [Compound 956, 2-amino-4-(8-chloro-4-(3,3-difluorocyclobutyl)-10-fluoro-2-(((2R,7aS)-2-fluorotetrahydro-1H-pyrrolizin-7a(5H)-yl)methoxy)-5,6-dihydro-4H-[1,4]oxazepino[5,6,7-de]quinazolin-9-yl)-7-fluorobenzo[b]thiophene-3-carbonitrile]
pIC50 (K-Ras G12D): > 7.00
pIC50 (K-Ras WT): > 7.00
pIC50 (K-Ras G12S): > 7.00
pIC50 (K-Ras G12V): > 7.00
pIC50 (A549 cells): > 5.30
pIC50 (SW620 cells): > 5.30

C[C@H]1CN([C@@H]2CCOC2)c2nc(OC[C@@]34CCCN3C[C@H](F)C4)nc3c(F)c(-c4ccc(F)c5sc(N)c(C#N)c45)c(Cl)c(c23)O1 [Compound 958, 2-amino-4-((6S)-8-chloro-10-fluoro-2-(((2R,7aS)-2-fluorotetrahydro-1H-pyrrolizin-7a(5H)-yl)methoxy)-6-methyl-4-((R)-tetrahydrofuran-3-yl)-5,6-dihydro-4H-[1,4]oxazepino[5,6,7-de]quinazolin-9-yl)-7-fluorobenzo[b]thiophene-3-carbonitrile]
pIC50 (K-Ras G12D): > 7.00
pIC50 (K-Ras WT): > 7.00
pIC50 (K-Ras G12S): > 7.00
pIC50 (K-Ras G12V): > 7.00
pIC50 (A549 cells): > 5.30
pIC50 (SW620 cells): > 5.30

N#Cc1c(N)sc2c(F)ccc(-c3c(Cl)c4c5c(nc(OC[C@@]67CCCN6C[C@H](F)C7)nc5c3F)N(CC3(C#N)CCC3)CCO4)c12 [Compound 963, 2-amino-4-(8-chloro-4-((1-cyanocyclobutyl)methyl)-10-fluoro-2-(((2R,7aS)-2-fluorotetrahydro-1H-pyrrolizin-7a(5H)-yl)methoxy)-5,6-dihydro-4H-[1,4]oxazepino[5,6,7-de]quinazolin-9-yl)-7-fluorobenzo[b]thiophene-3-carbonitrile]
pIC50 (K-Ras G12D): > 7.00
pIC50 (K-Ras WT): > 7.00
pIC50 (K-Ras G12S): > 7.00
pIC50 (K-Ras G12V): > 7.00
pIC50 (A549 cells): > 5.30
pIC50 (SW620 cells): > 5.30

N#Cc1c(N)sc2c(F)ccc(-c3c(Cl)c4c5c(nc(OC[C@@]67CCCN6C[C@H](F)C7)nc5c3F)N(C3CCN(C(=O)C(F)F)CC3)CCO4)c12 [Compound 971, 2-amino-4-(8-chloro-4-(1-(2,2-difluoroacetyl)piperidin-4-yl)-10-fluoro-2-(((2R,7aS)-2-fluorotetrahydro-1H-pyrrolizin-7a(5H)-yl)methoxy)-5,6-dihydro-4H-[1,4]oxazepino[5,6,7-de]quinazolin-9-yl)-7-fluorobenzo[b]thiophene-3-carbonitrile]
pIC50 (K-Ras G12D): > 7.00
pIC50 (K-Ras WT): > 7.00
pIC50 (K-Ras G12S): > 7.00
pIC50 (K-Ras G12V): > 7.00
pIC50 (A549 cells): > 5.30
pIC50 (SW620 cells): > 5.30

CC(COC(F)F)N1CCOc2c(Cl)c(-c3ccc(F)c4sc(N)c(C#N)c34)c(F)c3nc(OC[C@@]45CCCN4C[C@H](F)C5)nc1c23 (stereo partly drawn) [Compound 973, 2-amino-4-(8-chloro-4-(1-(difluoromethoxy)propan-2-yl)-10-fluoro-2-(((2R,7aS)-2-fluorotetrahydro-1H-pyrrolizin-7a(5H)-yl)methoxy)-5,6-dihydro-4H-[1,4]oxazepino[5,6,7-de]quinazolin-9-yl)-7-fluorobenzo[b]thiophene-3-carbonitrile]
pIC50 (K-Ras G12D): > 7.00
pIC50 (K-Ras WT): > 7.00
pIC50 (K-Ras G12S): > 7.00
pIC50 (K-Ras G12V): > 7.00
pIC50 (A549 cells): > 5.30
pIC50 (SW620 cells): > 5.30

N#Cc1c(N)sc2c(F)ccc(-c3c(Cl)c4c5c(nc(OC[C@@]67CCCN6C[C@H](F)C7)nc5c3F)N(C3CC35CNC5)CCO4)c12 (stereo partly drawn) [Compound 990, 2-amino-4-(8-chloro-10-fluoro-2-(((2R,7aS)-2-fluorotetrahydro-1H-pyrrolizin-7a(5H)-yl)methoxy)-4-(5-azaspiro[2.3]hexan-1-yl)-5,6-dihydro-4H-[1,4]oxazepino[5,6,7-de]quinazolin-9-yl)-7-fluorobenzo[b]thiophene-3-carbonitrile]
pIC50 (K-Ras G12D): > 7.00
pIC50 (K-Ras WT): > 7.00
pIC50 (K-Ras G12S): > 7.00
pIC50 (K-Ras G12V): > 7.00
pIC50 (A549 cells): > 5.30
pIC50 (SW620 cells): > 5.30

C[C@H]1COc2c(Cl)c(-c3ccc(F)c4sc(N)c(C#N)c34)c(F)c3nc(OC[C@@]45CCCN4C[C@H](F)C5)nc(c23)N1C1CCN(C(=O)C2CC2C#N)CC1 (stereo partly drawn) [Compound 995, 2-amino-4-((5S)-8-chloro-4-(1-(2-cyanocyclopropane-1-carbonyl)piperidin-4-yl)-10-fluoro-2-(((2R,7aS)-2-fluorotetrahydro-1H-pyrrolizin-7a(5H)-yl)methoxy)-5-methyl-5,6-dihydro-4H-[1,4]oxazepino[5,6,7-de]quinazolin-9-yl)-7-fluorobenzo[b]thiophene-3-carbonitrile]
pIC50 (K-Ras G12D): > 7.00
pIC50 (K-Ras WT): > 7.00
pIC50 (K-Ras G12S): > 7.00
pIC50 (K-Ras G12V): > 7.00
pIC50 (A549 cells): > 5.30
pIC50 (SW620 cells): > 5.30

N#Cc1c(N)sc2c(F)ccc(-c3c(Cl)c4c5c(nc(OC[C@@]67CCCN6C[C@H](F)C7)nc5c3F)N(C3CCC5(C3)CN(C(=O)C3CC3)C5)CCO4)c12 (stereo partly drawn) [Compound 1011, 2-amino-4-(8-chloro-4-(2-(cyclopropanecarbonyl)-2-azaspiro[3.4]octan-6-yl)-10-fluoro-2-(((2R,7aS)-2-fluorotetrahydro-1H-pyrrolizin-7a(5H)-yl)methoxy)-5,6-dihydro-4H-[1,4]oxazepino[5,6,7-de]quinazolin-9-yl)-7-fluorobenzo[b]thiophene-3-carbonitrile]
pIC50 (K-Ras G12D): > 7.00
pIC50 (K-Ras WT): > 7.00
pIC50 (K-Ras G12S): > 7.00
pIC50 (K-Ras G12V): > 7.00
pIC50 (A549 cells): > 5.30
pIC50 (SW620 cells): > 5.30
